The subject of assay [1] is rats. Nature of the assay: Elevated plus maze. The class given is in vivo. Here is the method: (§1) In this instance the animals were 9 weeks old at the initiation of drug exposures and we selected just the high (20 mg/kg) dose of 5-MeO-DMT from the molecular study. […] Due to the number of behavioral paradigms to be completed by each animal we divided the study into two cohorts staggered by two weeks with 8 animals coming from each cohort to make up the 16 animals for each treatment group. 23 hours after 5-MeO-DMT administration the animals were introduced to the open field arena where they were allowed to freely explore the area for 5 mins. Following the open field test (OFT) animals were returned to their home cage for 2 hours before beginning either the elevated plus maze (EPM) or pre-pulse inhibition (PPI) testing. 24 hours after completing the OFT animals were returned to the chamber for the first session in novel object (NO1) testing. The animals were returned to their home cage for 2 hours before beginning the EPM or PPI test. 24 hours after NO1 the animals returned to the open field chamber for the second session in novel object (N02) testing. After completing N02 animals were returned to their home cage for 2 hours before they underwent the forced swim test (FST) pre-test. 24 hours later the animals were returned to the FS cylinders for the FST. Upon completion of the FST all animals were euthanized. A timeline of this experimental cohort is described in FIG. 8A.
(§2) The experiment was conducted as described for cohort 1 for the first 13 days of injections. There are a number of notable differences in experimental procedures between the two cohorts of animals to be highlighted. […] Finally, the dose of 5-MeO-DMT was reduced to 10 mg/kg. The order and timing of all the behavioral paradigms were kept constant between the cohorts. A timeline of this experimental cohort is described in FIG. 8B. Additionally, 5-MeO-DMT administrations were staggered so animals could be observed for the duration of acute drug effects and to ensure recovery prior to the next animal being injected. The typical symptoms of psychedelic drug administration outlined above were reproduced in all animals administered 5-MeO-DMT.
Our EPM apparatus consisted of a plus-shaped white plastic platform positioned 100 cm above the ground. Two opposite arms of the maze were bordered by vertical walls measuring 20 cm high, with the other two arms open to the environment with no edges. Animals were placed into the centre of the maze facing a closed arm and allowed to explore freely for 5 min. At the conclusion of the test, rats were returned to their home cages and the apparatus was cleaned with 2% distal. Animal movement was recorded during the trial using Any-Maze software. Time spent in open or closed arms, number of entries into open arms and number of grooming behaviors were all quantified (FIG. 10A-10B). Behavioral assessment was conducted in a quiet room under low-level red-light illumination. Behaviors were scored by two observers blind to experimental conditions.

Assay [2] concerns rats. Nature of the assay: Open field test. To be noted: for duration of rearing behaviour, main effect: 5-MeO-DMT p=0.0047, cocaine p=0.0380; for duration of time spent in the centre of the arena: any treatment group; for number of rearings, main effect: cocaine p=0.0202, 5-MeO-DMT p=0.0020; for duration of time spent in the centre of the field: any of treatments. The class given is in vivo. Here is the method:
as §1, §2
The open field environment provides a fast and relatively easy test that determines a variety of behavioral information ranging from general ambulatory ability to data regarding the emotionality of the subject animal. The technique enables investigation of different pharmacological compounds for anxiolytic or anxiogenic effects (Seibenhener, M. L. & M. C. Wooten (2015) Use of the Open Field Maze to Measure Locomotor and Anxiety-like Behavior in Mice. Journal of Visualized Experiments: JoVE, 52434). Rodents show distinct aversions to large, brightly lit, open and unknown environments (Choleris, E., A. W. Thomas, M. Kavaliers & F. S. Prato (2001) A detailed ethological analysis of the mouse open field test: effects of diazepam, chlordiazepoxide and an extremely low frequency pulsed magnetic field. Neuroscience & Biobehavioral Reviews, 25, 235-260). These features are incorporated in the open field test and form the basis of its use in behavioural paradigm testing. There are various parameters that can be quantified from the open field, but the primary parameter of interest is thigmotaxis, the tendency of a subject to remain close to walls as determined by measuring time spent in inner zones versus outer zones of the maze (Simon, P., R. Dupuis & J. Costentin (1994) Thigmotaxis as an index of anxiety in mice. Influence of dopaminergic transmissions. Behavioural brain research, 61, 59-64). […] For the OFT, animals were placed in the open field arena and allowed to freely explore for 5 minutes. The session was recorded and analysed by EthoVision software which quantified the total distance covered. The number of entries into and total time spent in the centre of the arena were scored by two observers blind to experimental conditions (FIG. 9).

Setting [3] is: cohort 1, either treatment or the combination.
The mark [4] stands for this setting: cohort 2, either treatment or their combination.
[5] abbreviates: cohort 1, cocaine+20 mg/kg 5-MeO-DMT.

The values below come from patent US20240299353A1, “COMPOSITIONS AND METHODS FOR TREATING […] 5-MEO-DMT” (Alvarius Pharmaceuticals Ltd., priority 2021, published 2024).

Consider `COC(=O)[C@H]1[C@@H](OC(=O)c2ccccc2)C[C@@H]2CC[C@H]1N2C.Cl` [cocaine, cocaine hydrochloride, reference compound], for which, in assay [1] (cohort 1), the “secondary anxiety measures, stretch-attenuated posture (SAP) or head dipping” value is “no treatment effects”. In assay [1] (setting [3]), the “duration of time spent in the open arms” value was “unaffected by either treatment or the combination” and the “number of entries into the open arms” value is recorded as “unaffected by either treatment or the combination”. For the same compound, the “duration of time spent in the open arms” value in assay [1] (cohort 2, cocaine p=0.0031) is given as “significantly affected”. Besides, in assay [1] (cohort 2, cocaine p=0.0054, no post hoc differences), the head dipping result is listed as “significantly affected”. The “number of entries into the open arms” value in assay [1] (cohort 2, cocaine p=0.0055) was “significantly affected”. For the same compound, the total distance travelled result in assay [1] (setting [4]) is “no effect of either treatment or their combination”. Also, in assay [2] (cohort 1), the “duration of rearing behaviour, main effect” value is on record as “affected”; the “duration of time spent in the centre of the arena” value was “not affected by any treatment group”; the “number of rearings, main effect” value is listed as “significantly affected”. For the same compound, in assay [2] (cohort 2), the “duration of time spent in the centre of the field” value is listed as “not changed by any of treatments”. Also, the “number of entries into the centre of the open field” value in assay [2] (cohort 2, cocaine p=0.0448, no post hoc differences) is reported as “significantly affected”.

Consider `COc1ccc2[nH]cc(CCN(C)C)c2c1` [5-MeO-DMT, 5-methoxy-N,N-dimethyltryptamine], for which, in assay [1] (cohort 1), the “secondary anxiety measures, stretch-attenuated posture (SAP) or head dipping” value was “no treatment effects”. The “total distance travelled, main effect” value in assay [1] (cohort 1, 5-MeO-DMT p<0.0001) is reported as “significant effect”. In addition, the total distance travelled result in assay [1] (cohort 1, cocaine+20 mg/kg 5-MeO-DMT relative to cocaine alone) is “reduction in the total distance travelled”; in assay [1] (setting [4]), “no effect of either treatment or their combination”; in assay [2] (cohort 1, cocaine+20 mg/kg 5-MeO-DMT relative to cocaine+vehicle) it was “reduction in the total distance travelled”; in assay [2] (cohort 1, saline+20 mg/kg 5-MeO-DMT relative to saline+vehicle), “reduction in the total distance travelled”; in assay [2] (cohort 2, saline+10 mg/kg 5-MeO-DMT relative to saline+vehicle), “specific reduction in the total distance travelled”. Besides, in assay [1] (setting [3]), the “duration of time spent in the open arms” value is “unaffected by either treatment or the combination”. Also, the “number of entries into the open arms” value in assay [1] (setting [3]) is recorded as “unaffected by either treatment or the combination”. Further, the “duration of time spent on the open arms” value in assay [1] (cohort 2, cocaine and 5-MeO-DMT (10 mg/kg) combination relative to control and 5-MeO-DMT alone) is listed as “significantly increased”. Besides, in assay [2] (cohort 1, 20 mg/kg 5-MeO-DMT, p=0.0139, no post hoc differences), the “number of entries into the centre of the open field arena” value was “significantly affected”. Moreover, in assay [2] (cohort 1), the “duration of rearing behaviour, main effect” value is listed as “affected”. In addition, the “duration of time spent in the centre of the arena” value in assay [2] (cohort 1) is “not affected by any treatment group”. Also, in assay [2] (cohort 1), the “number of rearings, main effect” value is “significantly affected”. Besides, the “duration of rearing behaviour” value in assay [2] (setting [5]) was “significant decrease in the combination group relative to control”. Besides, the number of rearings entry in assay [2] (setting [5]) is “significantly decreased the number of rearings relative to the control and cocaine-treated animals”; in assay [2] (cohort 2, 10 mg/kg 5-MeO-DMT, p=0.0031, no post hoc differences), “significant effect”. Besides, the duration of rearings result in assay [2] (cohort 2, 10 mg/kg 5-MeO-DMT, p=0.0837) is “not the duration of rearings”. The “duration of time spent in the centre of the field” value in assay [2] (cohort 2) is listed as “not changed by any of treatments”.
